PubChem BioAssay AID328 (DTP/NCI, 2004)
“And” between values parts separate entries of the source, which are not always exact repeats. Equal entries are not always repeated. Toxic doses and inconclusive results are not listed.

Test system: BDF1 mice, P388 leukemia ip, median survival T/C
Test: NCI In Vivo Anticancer Drug Screen. Data for tumor model P388 Leukemia (intraperitoneal) in B6D2F1 (BDF1) mice
Conditions: endpoint: median survival time, higher = longer survival
How it was run: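 Compound-treated tumour-bearing mice were compared with vehicle-treated controls. Survival was recorded, and the value is the treated-group measurement divided by the control-group measurement (T/C).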

[1] = dose: 25.0 mg/kg/injection, schedule: Q01DX009 (ip), vehicle: Klucel (hydroxypropylcellulose) (HPC)
[2] = dose: 100.0 mg/kg/injection, schedule: Q01DX009 (ip), vehicle: saline with Tween-80
[3] = dose: 50.0 mg/kg/injection, schedule: Q01DX009 (ip), vehicle: saline
[4] = dose: 200.0 mg/kg/injection, schedule: Q01DX009 (ip), vehicle: saline
[5] = dose: 50.0 mg/kg/injection, schedule: Q01DX009 (ip), vehicle: saline with Tween-80
[6] = dose: 100.0 mg/kg/injection, schedule: Q01DX009 (ip), vehicle: saline
[7] = dose: 200.0 mg/kg/injection, schedule: Q01DX009 (ip), vehicle: saline with Tween-80
[8] = dose: 400.0 mg/kg/injection, schedule: Q01DX009 (ip), vehicle: saline with Tween-80
[9] = dose: 100.0 mg/kg/injection, schedule: Q01DX009 (ip), vehicle: Klucel (hydroxypropylcellulose) (HPC)
[10] = dose: 25.0 mg/kg/injection, schedule: Q01DX009 (ip), vehicle: saline with Tween-80

SMILES: O=C1C(Cl)=C(N=Nc2c(Cl)c(O)c3ccccc3c2O)C(=O)c2ccccc21
- T/C (dose: 3.12 mg/kg/injection, schedule: Q01DX009 (ip), vehicle: Klucel (hydroxypropylcellulose) (HPC)): 110 % of control
- T/C (dose: 6.25 mg/kg/injection, schedule: Q01DX009 (ip), vehicle: Klucel (hydroxypropylcellulose) (HPC)): 115 % of control
- T/C (dose: 12.5 mg/kg/injection, schedule: Q01DX009 (ip), vehicle: Klucel (hydroxypropylcellulose) (HPC)): 116 % of control
- T/C [1]: 109 % of control

SMILES: C[C@]12CCC(=O)C(O)=C1CC[C@@H]1[C@@H]2CC[C@@]2(C)[C@H]1CC[C@]2(C)O
- T/C (dose: 66.0 mg/kg/injection, schedule: Q01DX009 (ip), vehicle: saline with Tween-80): 104 % of control
- T/C [2]: 95 % of control
- T/C (dose: 150.0 mg/kg/injection, schedule: Q01DX009 (ip), vehicle: saline with Tween-80): 95 % of control
- T/C (dose: 200.0 mg/kg/injection, schedule: Q01DX009 (ip), vehicle: saline sonified): 90 % of control
- T/C (dose: 400.0 mg/kg/injection, schedule: Q01DX009 (ip), vehicle: saline sonified): 90 % of control

SMILES: CCOC(=O)C(NC(C)=O)(C(=O)OCC)C(C)C(=O)c1ccc(OC)c(OC)c1OCc1ccccc1 (stereo not given)
- T/C (dose: 12.5 mg/kg/injection, schedule: Q01DX009 (ip), vehicle: saline): 101 % of control
- T/C (dose: 25.0 mg/kg/injection, schedule: Q01DX009 (ip), vehicle: saline): 111 % of control
- T/C [3]: 92 % of control
- T/C [4]: 101 % of control

SMILES: CCCCOC1OCN(CCOC)CC1(C)C (stereo not given)
- T/C [5]: 109 % of control
- T/C [3]: 116 % of control
- T/C [6]: 109 % of control
- T/C [7]: 153 % of control
- T/C [4]: 118 % of control

SMILES: O=C(Nc1ccc(NC2=NCCN2)cc1)c1ccc(C(=O)Nc2ccc(NC3=NCCN3)cc2)cc1
- T/C (dose: 2.0 mg/kg/injection, schedule: Q01DX010 (ip), vehicle: saline): 165 % of control and 180 % of control
- T/C (dose: 4.0 mg/kg/injection, schedule: Q01DX010 (ip), vehicle: saline): 260 % of control and 205 % of control
- T/C (dose: 8.0 mg/kg/injection, schedule: Q01DX010 (ip), vehicle: saline): 260 % of control and 285 % of control
- T/C (dose: 16.0 mg/kg/injection, schedule: Q01DX010 (ip), vehicle: saline): 105 % of control and 110 % of control

SMILES: O=C(/C=C/c1cccc(Br)c1)NCC(O)CO (stereo not given)
- T/C [7]: 95 % of control
- T/C [8]: 87 % of control

SMILES: C1CCNCC1.O=C([CH-]C(=O)C(F)(F)F)c1ccc2c(c1)C(=O)c1ccccc1-2.O=C([CH-]C(=O)C(F)(F)F)c1ccc2c(c1)C(=O)c1ccccc1-2.O=C([CH-]C(=O)C(F)(F)F)c1ccc2c(c1)C(=O)c1ccccc1-2.O=C([CH-]C(=O)C(F)(F)F)c1ccc2c(c1)C(=O)c1ccccc1-2.[Eu+3]
- T/C [9]: 102 % of control
- T/C (dose: 200.0 mg/kg/injection, schedule: Q01DX009 (ip), vehicle: Klucel (hydroxypropylcellulose) (HPC)): 102 % of control

SMILES: CCOC(=O)Nc1cncc(NC(=O)OCC)n1
- T/C (dose: 6.25 mg/kg/injection, schedule: Q04DX003 (ip), vehicle: water): 106 % of control
- T/C (dose: 12.5 mg/kg/injection, schedule: Q04DX003 (ip), vehicle: water): 100 % of control
- T/C (dose: 25.0 mg/kg/injection, schedule: Q01DX009 (ip), vehicle: water): 100 % of control
- T/C (dose: 25.0 mg/kg/injection, schedule: Q04DX003 (ip), vehicle: water): 105 % of control
- T/C (dose: 50.0 mg/kg/injection, schedule: Q01DX009 (ip), vehicle: water): 101 % of control
- T/C (dose: 50.0 mg/kg/injection, schedule: Q04DX003 (ip), vehicle: water): 101 % of control
- T/C (dose: 100.0 mg/kg/injection, schedule: Q01DX009 (ip), vehicle: water): 93 % of control
- T/C (dose: 100.0 mg/kg/injection, schedule: Q04DX003 (ip), vehicle: water): 100 % of control
- T/C (dose: 200.0 mg/kg/injection, schedule: Q01DX009 (ip), vehicle: water): 95 % of control
- T/C (dose: 400.0 mg/kg/injection, schedule: Q01DX009 (ip), vehicle: water): 87 % of control

SMILES: COc1ccc(N=Cc2cccs2)cc1
- T/C [2]: 119 % of control
- T/C [7]: 96 % of control
- T/C [8]: 100 % of control

SMILES: CCCNCC(O)c1cc(C(F)(F)F)nc2c(C(F)(F)F)cccc12 (stereo not given)
- T/C [5]: 115 % of control
- T/C [2]: 104 % of control

SMILES: COC1=C(C)C(=O)C2=C(C1=O)C1C3CC4=C(C(=O)C(OC)=C(C)C4=O)C(CNC(=O)C(C)=O)N3C(C#N)C(C2)N1C (stereo not given)
- T/C (dose: 0.31 mg/kg/injection, schedule: Q01DX009 (ip), vehicle: Klucel (hydroxypropylcellulose) (HPC)): 151 % of control
- T/C (dose: 0.62 mg/kg/injection, schedule: Q01DX009 (ip), vehicle: Klucel (hydroxypropylcellulose) (HPC)): 183 % of control
- T/C (dose: 1.25 mg/kg/injection, schedule: Q01DX009 (ip), vehicle: Klucel (hydroxypropylcellulose) (HPC)): 159 % of control

SMILES: CC1(c2cccs2)NC(=O)NC1=O (stereo not given)
- T/C [10]: 104 % of control
- T/C [5]: 96 % of control and 124 % of control
- T/C [2]: 112 % of control and 111 % of control
- T/C (dose: 100.0 mg/kg/injection, schedule: Q04DX003 (ip), vehicle: saline with Tween-80): 100 % of control
- T/C [7]: 101 % of control
- T/C (dose: 200.0 mg/kg/injection, schedule: Q04DX003 (ip), vehicle: saline with Tween-80): 104 % of control and 98 % of control
- T/C (dose: 400.0 mg/kg/injection, schedule: Q04DX003 (ip), vehicle: saline with Tween-80): 100 % of control and 90 % of control

SMILES: CCC/[N+]([O-])=C/c1ccc([N+](=O)[O-])o1
- T/C [10]: 101 % of control
- T/C [5]: 105 % of control
- T/C [2]: 115 % of control

SMILES: O=C(NC1=NN(c2ccccc2)C(=O)C1)Nc1ccccc1
- T/C (dose: 87.5 mg/kg/injection, schedule: Q01DX009 (ip), vehicle: saline with Tween-80): 110 % of control
- T/C (dose: 175.0 mg/kg/injection, schedule: Q01DX009 (ip), vehicle: saline with Tween-80): 103 % of control

SMILES: CN(C)c1ccc(C(=O)c2ccccc2)cc1
- T/C [1]: 104 % of control
- T/C (dose: 50.0 mg/kg/injection, schedule: Q01DX009 (ip), vehicle: Klucel (hydroxypropylcellulose) (HPC)): 90 % of control
- T/C [9]: 95 % of control

SMILES: O=C1OC(C(O)CO)C(O)=C1O (stereo not given)
- T/C (dose: 0.01 mg/kg/injection, schedule: Q01DX009 (ip), vehicle: saline): 105 % of control and 109 % of control
- T/C (dose: 0.03 mg/kg/injection, schedule: Q01DX009 (ip), vehicle: saline): 91 % of control and 100 % of control and 118 % of control
- T/C (dose: 0.06 mg/kg/injection, schedule: Q01DX009 (ip), vehicle: saline): 97 % of control and 100 % of control and 113 % of control
- T/C (dose: 0.24 mg/kg/injection, schedule: Q01DX009 (ip), vehicle: saline): 102 % of control
- T/C (dose: 0.25 mg/kg/injection, schedule: Q01DX009 (ip), vehicle: saline): 90 % of control and 110 % of control
- T/C (dose: 0.5 mg/kg/injection, schedule: Q01DX009 (ip), vehicle: saline): 95 % of control and 105 % of control
- T/C (dose: 1.0 mg/kg/injection, schedule: Q01DX001 (ip), vehicle: saline): 100 % of control
- T/C (dose: 1.0 mg/kg/injection, schedule: Q01DX009 (ip), vehicle: saline): 90 % of control and 95 % of control
- T/C (dose: 2.0 mg/kg/injection, schedule: Q01DX001 (ip), vehicle: saline): 100 % of control
- T/C (dose: 2.0 mg/kg/injection, schedule: Q01DX009 (ip), vehicle: saline): 95 % of control
- T/C (dose: 4.0 mg/kg/injection, schedule: Q01DX001 (ip), vehicle: saline): 105 % of control
- T/C (dose: 4.0 mg/kg/injection, schedule: Q01DX009 (ip), vehicle: saline): 90 % of control
- T/C (dose: 8.0 mg/kg/injection, schedule: Q01DX009 (ip), vehicle: saline): 100 % of control
- T/C (dose: 16.0 mg/kg/injection, schedule: Q01DX001 (ip), vehicle: saline): 105 % of control
- T/C (dose: 16.0 mg/kg/injection, schedule: Q01DX009 (ip), vehicle: saline): 100 % of control
- T/C (dose: 32.0 mg/kg/injection, schedule: Q01DX001 (ip), vehicle: saline): 100 % of control
- T/C (dose: 32.0 mg/kg/injection, schedule: Q01DX009 (ip), vehicle: saline): 90 % of control
- T/C (dose: 64.0 mg/kg/injection, schedule: Q01DX001 (ip), vehicle: saline): 95 % of control
- T/C [6]: 100 % of control
- T/C (dose: 100.0 mg/kg/injection, schedule: Q04DX003 (ip), vehicle: saline): 95 % of control
- T/C [4]: 105 % of control
- T/C (dose: 200.0 mg/kg/injection, schedule: Q04DX003 (ip), vehicle: saline): 95 % of control
- T/C (dose: 400.0 mg/kg/injection, schedule: Q04DX003 (ip), vehicle: saline): 95 % of control

SMILES: O=c1c2ccccc2nc(-c2ccccc2)n1-c1nnc(C(F)(F)F)s1
- T/C (dose: 3.12 mg/kg/injection, schedule: Q01DX009 (ip), vehicle: saline with Tween-80): 101 % of control
- T/C (dose: 6.25 mg/kg/injection, schedule: Q01DX009 (ip), vehicle: saline with Tween-80): 105 % of control
- T/C (dose: 12.5 mg/kg/injection, schedule: Q01DX009 (ip), vehicle: saline with Tween-80): 91 % of control
